Consider eleven compounds from patent publication US4560690A, “2-(N-substituted guanidino)-4-hetero-arylthiazole antiulcer agents” (Pfizer Inc., priority 1984, dated 1985).

SMILES strings stand for the structures. Some results are limits rather than exact numbers.

Test [1] deals with gastric acid secretion (pentagastrin-stimulated acid output from the gastric pouch). The experiment in a line: Gastric acid antisecretory activity in pentagastrin-stimulated conscious Heidenhain pouch dogs. In kind it is in vivo. As to conditions: Canis lupus familiaris; for inhibition in vivo at up to 2 mg/kg: at the same (oral 2 mg/kg) or a lower dose; for inhibition in vivo at 2 mg/kg: oral dose of 2 mg/kg, Heidenhain pouch dogs, pentagastrin. The procedure:
The gastric acid antisecretory activity of compounds of the present invention was determined in overnight fasted, conscious Heidenhain pouch dogs. Pentagastrin (Pentavolon-Ayerst) was used to stimulate acid output by continuous infusion into a superficial leg vein at doses earlier determined to stimulate near maximal acid output from the gastric pouch. Gastric juice was collected at 30 minute intervals following the start of a pentagastrin infusion and measured to the nearest 0.1 ml. Ten collections were taken for each dog during an experiment. Acid concentration was determined by tritrating 1.0 ml of gastric juice to pH 7.4 with 0.1N sodium hydroxide using an Autoburette and a glass electrode pH meter (Radiometer).
Drug or vehicle was given intravenously or orally 90 minutes following the start of the pentagastrin infusion, at a dose of 2 mg/kg or less. Gastric acid antisecretory effects were calculated by comparing the lowest acid output after drug administration with the mean acid output immediately before drug.

Another test addresses T1, histamine-H2 receptor (Cavia porcellus, UniProt P47747).
T1 construct: the heart removed and the right atria dissected free; from tissue; host or cells: guinea pig right atria (isolated, spontaneously beating)
The test is described as follows: Histamine-H2 antagonist activity in isolated guinea pig right atria (pA2). The format is cell-based, Guinea pigs. As to conditions: Krebs-Henseleit buffer pH 7.4, 32°±2° C., histamine dose-response, * tested as the dihydrobromide salt, read-out: pA2 (apparent dissociation constant of the H2-receptor antagonist) (converted). The procedure: The histamine-H2 antagonist activity of compounds of the present invention was determined by the following procedure:
Guinea pigs are killed rapidly with a blow to the head, the heart removed and the right atria dissected free. Atria are suspended, isometrically, in a temperature-controlled (32°±2° C.) tissue bath (10 ml) containing oxygenated (95% O2; 5% CO2) Krebs-Henseleit buffer (pH 7.4) and are allowed to stabilize approximately one hour during which time the tissue bath is flushed several times. Individual atrial contractions are followed with a force-displacement transducer connected to a cardiotachometer and Grass polygraph recorder. After obtaining a dose-response curve to histamine, the bath containing each atrium is flushed several times with fresh buffer and the atria reequilibrated to basal rates. Following the return to basal rate, test compounds are added at selected final concentrations and the histamine dose-response curve is again determined in the presence of antagonist. Results are expressed as dose-ratios, the ratio of histamine concentrations required to produce one-half of maximal stimulation in the presence and absence of antagonist, and the apparent dissociation constant of the H2 -receptor antagonist pA2, is determined.

For test [2], the system named is ethanol-induced gastric ulceration. The experiment in a line: Inhibition of ethanol-induced ulceration in rats. The format is in vivo, male rats. Particulars: for cytoprotection (inhibition of ethanol-induced ulceration): same dosage, 30 mg/kg oral. The procedure: The antiulcer activity of the products of this invention was also determined by an ethanol-induced rat ulcer assay. In this test, overnight fasted male rats are given drug (at 30 or 3 mg/kg) or water orally fifteen minutes prior to an orally administered dose of absolute ethanol (1.0 ml). One hour after the ethanol challenge the animals (8/group) are killed and the stomachs examined for the presence of lesions. After sacrifice the abdomen is opened and a locking hemostat placed at the pylorus. Six ml of a 4% solution of formaldehyde was injected into the stomach with a gastric feeding tube and a second locking hemostat was used to seal the esophagus. The stomach was removed, opened along the greater curvature and examined for ulceration.
The scoring system used to quantitate the ethanol-induced lesions is given below.
For each group of animals an ulcer index is calculated as follows:
Ulceration Index=(the sum of the scores of the group)×(the sum of the number of ulcers in the group)×(the fraction of the group having any incidence of ulceration).
The percentage inhibition of ulcers is calculated as follows:
% Inhibition=100×[(ulcer index controls)-(ulcer index
drug-treated)].div.(ulcer index controls).

[3] abbreviates: * tested as the dihydrobromide salt.
Where [4] appears, read: oral dose of 3 mg/kg, * tested as the dihydrobromide salt.
[5] abbreviates: oral dose of 30 mg/kg, fifteen minutes prior to absolute ethanol.

T1 sequence (P47747 whole entry): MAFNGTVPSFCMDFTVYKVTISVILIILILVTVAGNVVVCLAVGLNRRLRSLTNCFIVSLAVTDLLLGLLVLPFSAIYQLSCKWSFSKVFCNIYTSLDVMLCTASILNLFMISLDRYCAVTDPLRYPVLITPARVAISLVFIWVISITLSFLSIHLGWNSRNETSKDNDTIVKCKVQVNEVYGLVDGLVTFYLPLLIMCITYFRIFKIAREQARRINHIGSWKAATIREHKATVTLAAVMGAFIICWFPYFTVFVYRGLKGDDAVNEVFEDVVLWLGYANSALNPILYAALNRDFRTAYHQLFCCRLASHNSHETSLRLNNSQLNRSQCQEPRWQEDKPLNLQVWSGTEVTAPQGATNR

One may read the inhibition in vivo as the drop in the measured response relative to a control, in per cent. In the case of `CCCCCCNC(N)=Nc1nc(-c2c[nH]c(C)n2)cs1` [Example 5*], the inhibition in vivo at 0.1 mg/kg in test [1] (iv, dose of 0.1 mg/kg (i.v.), * tested as the dihydrobromide salt) worked out at 58%. The inhibition in vivo at up to 2 mg/kg in test [1] (setting [3]) was no less than 64%. For the same compound, the Kb on histamine-H2 receptor was no more than 63.1 nM.
`Cc1nc(-c2csc(NC(=N)NCc3ccccc3)n2)c[nH]1` [Example 6a, N-[4-(2-methylimidazol-4-yl)thiazol-2-yl]-N'-benzylguanidine]: the Kb at histamine-H2 receptor was no more than 63.1 nM.
For `CCCCCCC(C)NC(=N)Nc1nc(-c2c[nH]c(C)n2)cs1` (stereo not shown) [Example 6b, N-[4-(2-methylimidazol-4-yl)thiazol-2-yl]-N'-2-octylguanidine], the inhibition in vivo at up to 2 mg/kg in test [1] (setting [3]) was no less than 64%. Moreover, at histamine-H2 receptor, the Kb is no more than 63.1 nM. Also, the “inhibition of ethanol-induced ulceration” value in test [2] (setting [4]) was “at least 40%”.
For `CCCCCNC(N)=Nc1nc(-c2c[nH]c(C)n2)cs1` [Example 6c], the inhibition in vivo at up to 2 mg/kg in test [1] (setting [3]) was no less than 64%. Moreover, at histamine-H2 receptor, the Kb was no more than 126 nM. For the same compound, the “cytoprotection (inhibition of ethanol-induced ulceration)” value in test [2] was no less than 90%.
In test [1], `CCCCCCCNC(N)=Nc1nc(-c2c[nH]c(C)n2)cs1` [Example 6f] returned an inhibition in vivo at 2 mg/kg of no less than 24%. Moreover, the Kb at histamine-H2 receptor was no more than 63.1 nM. Further, the “inhibition of ethanol-induced ulceration” value in test [2] (setting [5]) is reported as “at least 77%”. In addition, the “cytoprotection (inhibition of ethanol-induced ulceration)” value in test [2] was no less than 90%.
On to `CCCCCCCCNC(N)=Nc1nc(-c2c[nH]c(C)n2)cs1` [Example 6g], for which the inhibition in vivo at 2 mg/kg in test [1] was no less than 24%. In addition, at histamine-H2 receptor, the Kb was no more than 126 nM.
Regarding `CCCCCCC(C)NC(=N)Nc1nc(-c2c[nH]c(C)n2)cs1` (stereo not shown) [Example 6j, N-[4-(2-methylimidazol-4-yl)thiazol-2-yl]-N'-2-octylguanidine], the “inhibition of ethanol-induced ulceration” value in test [2] (setting [5]) is “at least 77%”.
As for `Cc1nc(-c2csc(NC(=N)NCc3ccccc3)n2)c[nH]1` [Example 6l, N-[4-(2-methylimidazol-4-yl)thiazol-2-yl]-N'-benzylguanidine], the inhibition in vivo at up to 2 mg/kg in test [1] (setting [3]) is no less than 64%. Also, the entries for the “inhibition of ethanol-induced ulceration” value in test [2] (setting [4]) and in test [2] (setting [5]) were “at least 40%” and “at least 77%”, respectively.
Take `Cc1nc(-c2csc(N=C(N)NCCc3ccccc3)n2)c[nH]1` [Example 6m]: in test [1] (setting [3]), the inhibition in vivo at up to 2 mg/kg was no less than 64%. In addition, the Kb at histamine-H2 receptor is no more than 63.1 nM. Besides, the “inhibition of ethanol-induced ulceration” value in test [2] (setting [5]) is “at least 77%”.
On to `Cc1nc(-c2csc(N=C(N)NCCCc3ccccc3)n2)c[nH]1` [Example 6n], for which the inhibition in vivo at 2 mg/kg in test [1] was no less than 24%. The Kb at histamine-H2 receptor is no more than 63.1 nM.
Take `Cc1nc(-c2csc(N=C(N)NCCCCc3ccccc3)n2)c[nH]1` [Example 6o]: the inhibition in vivo at 2 mg/kg in test [1] was no less than 24%. Further, in test [2] (setting [5]), the “inhibition of ethanol-induced ulceration” value is recorded as “at least 77%”. In addition, the “cytoprotection (inhibition of ethanol-induced ulceration)” value in test [2] is reported as no less than 90%.
